The source of these data is publication PMC11438102, “Modulation of cannabinoid receptor 2 alters neuroinflammation and reduces formation of alpha-synuclein aggregates in a rat model of nigral synucleinopathy” (Journal of Neuroinflammation, 2024).

Data set [1] in a line: Blood brain barrier penetration / pharmacokinetics of SMM-189 in mice. The data set is classed as in vivo. Conditions: 6 mg/kg. As to the method:
Analysis of the brain-to-blood ratios of SMM-189 were performed by Sai Life Sciences Limited (Telangana, India). All procedures of the study were in accordance with the guidelines provided by the Committee for the Purpose of Control and Supervision of Experiments on Animals (CPCSEA) as published in The Gazette of India, December 15, 1998. Prior approval of the Institutional Animal Ethics Committee (IAEC) was obtained before initiation of the study. In brief, 54 mice were weighed and divided as Group 1 (6 mg/kg, i.p.) and Group 2 (6 mg/kg, by oral (p.o.)). Animals in Group 1 and Group 2 were administered intraperitoneally and orally with SMM-189 solution formulation at 6 mg/kg in 5% Ethanol, 5% Cremophor and 90% Normal Saline, respectively. The blood samples were collected under light isoflurane anesthesia at 0.08, 0.25, 0.5, 1, 2, 4, 8, 12 and 24 h (i.p.) and 0.25, 0.5, 1, 2, 4, 6, 8, 12 and 24 h (p.o.) in labeled micro centrifuge tube containing K2EDTA as anticoagulant. After blood collection, plasma was harvested by centrifugation and stored at -70 °C until analysis. Immediately after collection of blood, brain samples were collected from set of three mice at each time point at 0.08, 0.25, 0.5, 1, 2, 4, 8, 12 and 24 h (Group 1; i.p.) and 0.25, 0.5, 1, 2, 4, 6, 8, 12 and 24 h (Group 2; p.o.). Brain samples were homogenized using ice-cold phosphate buffer saline (pH-7.4) in a ratio of 2 (buffer):1(brain); and homogenates were stored below − 70 ± 10 °C until analysis. Total homogenate volume was three times the brain weight. All samples were processed for analysis by protein precipitation using acetonitrile and analyzed with fit-for-purpose LC-MS/MS method (LLOQ = 1.02 ng/mL for plasma and 6.09 ng/g for brain).
Non-compartmental-analysis module in Phoenix WinNonlin® (Version 6.3) was used to assess the pharmacokinetic parameters. Maximum concentration (Cmax) and time to reach the maximum concentration (Tmax) were the observed values. The areas under the concentration time curve (AUClast and AUCinf) were calculated by linear trapezoidal rule. The terminal elimination rate constant, ke was determined by regression analysis of the linear terminal portion of the log plasma concentration-time curve. The terminal half-life (T1/2) was estimated as 0.693/ke.

Another data set concerns CB2. Also noted: method as in PMID 27766068. The following applies: microglia; cited from earlier work.

As to `O=C(c1ccccc1)c1cc(O)c(-c2cc(Cl)cc(Cl)c2)c(O)c1` [SMM-189], the Cmax in data set [1] (brain, i.p.) was found to be 204.64 ng/mL; in data set [1] (brain, p.o.), 70.34 ng/mL; in data set [1] (plasma, i.p.) it was 277.07 ng/mL; in data set [1] (plasma, p.o.) it was 43.15 ng/mL. Besides, the Tmax amounted to 30 min in data set [1] (brain, i.p.); 15 min in data set [1] (brain, p.o.); 30 min in data set [1] (plasma, i.p.); 15 min in data set [1] (plasma, p.o.). Moreover, the results for the “Brain/plasma ratio (Cmax)” value in data set [1] (i.p.) and in data set [1] (p.o.) were 0.74 and 1.63, respectively. For the same compound, in the data set on CB2, the “levels of nuclear phosphorylated cAMP response-element binding protein (pCREB)” value is “increased”.
